On the set-up of the data set: species or system Yorkshire cross swine. The note with it: in vivo. Here is the method: PuraMatrix™, a peptide solution comprising Ac-RADARADARADARADA-NH2 (Ac-Arg-Ala-Asp-Ala-Arg-Ala-Asp-Ala-Arg-Ala-Asp-Ala-Arg-Ala-Asp-Ala-NH2) (SEQ ID NO: 58) in water was used as an embolic agent in a porcine model through angiography, gross necropsy assessment, and histopathology assessment. One female Yorkshire cross swine was tested. The weight of the swine at the time of testing was 46.5 kg. Feed and water were provided per standard operating procedures. There were no contaminants in the food or water that were expected to interfere with the conduct or results of the study. The swine was acquired from a test facility approved animal supplier. The Swine participated in an incoming physical exam, and after a period of acclimation was again examined. The swine was fasted a minimum of 12 hours prior to the procedures. The animals were sedated and anesthetized by an intramuscular or subcutaneous injection of Telazol (2-10 mg/kg) and Xylazine (0.5=5.0 mg/kg). Propofol (to effect) was given to aid in sedation. An endotracheal tube was used to ensure proper ventilation and the animals were maintained under general anesthesia with inhalant isofluorante (0.1 to 5.0%). Heparin (50-300 units/kg, IV) was administered throughout the procedure.
On the day of testing, the swine was 2 months, 25 days old. The swine was sedated and prepared for surgery. […]

The text below walks through data of patent US12629446B2, “Vascular embolic system” (3-D Matrix, Ltd., priority 2012, dated 2026).

On to Ac-RADARADARADARADA-NH2 [PuraMatrix™], for which the “adverse events throughout the testing” value is listed as “no adverse events”.
